Reference: ChEMBL document CHEMBL3991601, “The target landscape of clinical kinase drugs” (Science, 2017)
pKd: −log10 of the molar value. The source made the active and inactive calls. Cut-off read from the data, not from the text of the source, for most assays here: actives have a measured Kd and inactives only a lower limit.

Tests used:
[1] = target: T1, DNA replication licensing factor MCM4 (Homo sapiens, UniProt P33991)
T1 sequence (P33991 whole entry): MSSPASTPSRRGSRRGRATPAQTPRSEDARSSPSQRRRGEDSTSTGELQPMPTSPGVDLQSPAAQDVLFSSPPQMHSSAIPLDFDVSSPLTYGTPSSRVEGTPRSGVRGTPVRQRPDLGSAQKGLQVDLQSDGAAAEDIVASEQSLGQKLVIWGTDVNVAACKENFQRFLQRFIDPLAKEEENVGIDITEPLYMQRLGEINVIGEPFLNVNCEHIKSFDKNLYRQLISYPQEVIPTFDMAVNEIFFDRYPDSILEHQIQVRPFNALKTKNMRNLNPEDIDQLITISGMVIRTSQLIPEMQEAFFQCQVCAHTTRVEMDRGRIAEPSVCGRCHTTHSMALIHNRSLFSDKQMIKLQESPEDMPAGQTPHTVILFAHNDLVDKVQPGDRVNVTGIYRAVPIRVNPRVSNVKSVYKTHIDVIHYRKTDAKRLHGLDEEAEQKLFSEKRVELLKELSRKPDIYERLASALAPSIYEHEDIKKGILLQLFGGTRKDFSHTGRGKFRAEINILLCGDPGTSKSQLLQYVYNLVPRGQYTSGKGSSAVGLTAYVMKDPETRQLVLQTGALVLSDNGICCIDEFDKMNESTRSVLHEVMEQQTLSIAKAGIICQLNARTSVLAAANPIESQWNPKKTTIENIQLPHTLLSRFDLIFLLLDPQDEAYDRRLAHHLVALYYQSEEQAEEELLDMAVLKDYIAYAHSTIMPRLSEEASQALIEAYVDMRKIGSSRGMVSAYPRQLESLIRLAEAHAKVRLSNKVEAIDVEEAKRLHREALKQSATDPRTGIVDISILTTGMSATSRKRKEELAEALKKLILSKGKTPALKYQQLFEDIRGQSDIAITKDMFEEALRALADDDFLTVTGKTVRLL

[2] = target: Ephrin type-A receptor 2 (Homo sapiens, UniProt P29317)
Chain of Ephrin type-A receptor 2 (P29317 whole entry): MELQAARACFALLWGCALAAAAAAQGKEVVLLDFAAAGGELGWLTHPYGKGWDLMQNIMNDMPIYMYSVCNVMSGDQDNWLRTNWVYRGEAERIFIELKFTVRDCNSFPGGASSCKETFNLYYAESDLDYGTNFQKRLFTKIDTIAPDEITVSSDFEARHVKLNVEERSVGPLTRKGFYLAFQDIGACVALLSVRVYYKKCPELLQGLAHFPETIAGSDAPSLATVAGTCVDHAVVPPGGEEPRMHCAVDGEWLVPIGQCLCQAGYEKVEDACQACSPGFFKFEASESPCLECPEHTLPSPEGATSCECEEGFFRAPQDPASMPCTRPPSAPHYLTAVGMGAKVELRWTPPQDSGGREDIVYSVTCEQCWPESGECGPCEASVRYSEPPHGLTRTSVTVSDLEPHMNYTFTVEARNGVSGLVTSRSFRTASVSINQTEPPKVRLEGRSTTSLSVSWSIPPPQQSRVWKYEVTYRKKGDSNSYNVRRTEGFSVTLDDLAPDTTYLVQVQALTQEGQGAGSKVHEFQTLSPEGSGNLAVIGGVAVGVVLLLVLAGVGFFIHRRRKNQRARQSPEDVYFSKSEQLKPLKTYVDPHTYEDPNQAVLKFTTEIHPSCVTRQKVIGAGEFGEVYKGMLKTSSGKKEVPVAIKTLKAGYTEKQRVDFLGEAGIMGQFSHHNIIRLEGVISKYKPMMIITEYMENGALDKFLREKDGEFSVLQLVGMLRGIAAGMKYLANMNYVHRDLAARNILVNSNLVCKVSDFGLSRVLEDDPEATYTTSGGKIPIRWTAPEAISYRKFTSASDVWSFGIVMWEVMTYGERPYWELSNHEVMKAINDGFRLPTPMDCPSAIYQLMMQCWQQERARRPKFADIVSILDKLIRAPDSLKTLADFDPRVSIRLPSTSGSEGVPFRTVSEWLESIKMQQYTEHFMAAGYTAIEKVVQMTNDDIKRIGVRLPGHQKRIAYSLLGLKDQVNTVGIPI

[3] = target: Tyrosine-protein kinase Fer (Homo sapiens, UniProt P16591)
Chain of Tyrosine-protein kinase Fer (P16591 whole entry): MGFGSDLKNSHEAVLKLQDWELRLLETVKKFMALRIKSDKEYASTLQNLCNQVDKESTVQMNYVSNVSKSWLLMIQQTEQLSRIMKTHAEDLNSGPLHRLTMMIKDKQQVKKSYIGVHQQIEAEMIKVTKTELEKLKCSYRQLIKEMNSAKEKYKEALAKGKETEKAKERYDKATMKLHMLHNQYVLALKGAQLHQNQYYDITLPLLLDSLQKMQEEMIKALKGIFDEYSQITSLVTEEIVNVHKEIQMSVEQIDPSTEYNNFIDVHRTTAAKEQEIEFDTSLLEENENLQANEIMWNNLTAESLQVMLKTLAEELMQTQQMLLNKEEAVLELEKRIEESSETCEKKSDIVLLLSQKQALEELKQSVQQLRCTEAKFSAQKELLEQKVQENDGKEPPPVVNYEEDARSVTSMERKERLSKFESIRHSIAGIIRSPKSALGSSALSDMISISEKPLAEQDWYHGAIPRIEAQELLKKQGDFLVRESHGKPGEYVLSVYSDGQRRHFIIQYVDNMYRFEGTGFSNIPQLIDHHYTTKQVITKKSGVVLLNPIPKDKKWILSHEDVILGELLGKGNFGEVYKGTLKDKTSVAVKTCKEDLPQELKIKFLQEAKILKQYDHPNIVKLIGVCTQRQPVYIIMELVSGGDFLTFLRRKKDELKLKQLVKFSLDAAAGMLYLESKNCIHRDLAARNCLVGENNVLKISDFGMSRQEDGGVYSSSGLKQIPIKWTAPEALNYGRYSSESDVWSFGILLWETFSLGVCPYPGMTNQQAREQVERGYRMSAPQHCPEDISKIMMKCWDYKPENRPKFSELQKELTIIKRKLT

[4] = target: T2, Mitogen-activated protein kinase kinase kinase 6 (Homo sapiens, UniProt O95382)
T2 sequence (O95382 whole entry): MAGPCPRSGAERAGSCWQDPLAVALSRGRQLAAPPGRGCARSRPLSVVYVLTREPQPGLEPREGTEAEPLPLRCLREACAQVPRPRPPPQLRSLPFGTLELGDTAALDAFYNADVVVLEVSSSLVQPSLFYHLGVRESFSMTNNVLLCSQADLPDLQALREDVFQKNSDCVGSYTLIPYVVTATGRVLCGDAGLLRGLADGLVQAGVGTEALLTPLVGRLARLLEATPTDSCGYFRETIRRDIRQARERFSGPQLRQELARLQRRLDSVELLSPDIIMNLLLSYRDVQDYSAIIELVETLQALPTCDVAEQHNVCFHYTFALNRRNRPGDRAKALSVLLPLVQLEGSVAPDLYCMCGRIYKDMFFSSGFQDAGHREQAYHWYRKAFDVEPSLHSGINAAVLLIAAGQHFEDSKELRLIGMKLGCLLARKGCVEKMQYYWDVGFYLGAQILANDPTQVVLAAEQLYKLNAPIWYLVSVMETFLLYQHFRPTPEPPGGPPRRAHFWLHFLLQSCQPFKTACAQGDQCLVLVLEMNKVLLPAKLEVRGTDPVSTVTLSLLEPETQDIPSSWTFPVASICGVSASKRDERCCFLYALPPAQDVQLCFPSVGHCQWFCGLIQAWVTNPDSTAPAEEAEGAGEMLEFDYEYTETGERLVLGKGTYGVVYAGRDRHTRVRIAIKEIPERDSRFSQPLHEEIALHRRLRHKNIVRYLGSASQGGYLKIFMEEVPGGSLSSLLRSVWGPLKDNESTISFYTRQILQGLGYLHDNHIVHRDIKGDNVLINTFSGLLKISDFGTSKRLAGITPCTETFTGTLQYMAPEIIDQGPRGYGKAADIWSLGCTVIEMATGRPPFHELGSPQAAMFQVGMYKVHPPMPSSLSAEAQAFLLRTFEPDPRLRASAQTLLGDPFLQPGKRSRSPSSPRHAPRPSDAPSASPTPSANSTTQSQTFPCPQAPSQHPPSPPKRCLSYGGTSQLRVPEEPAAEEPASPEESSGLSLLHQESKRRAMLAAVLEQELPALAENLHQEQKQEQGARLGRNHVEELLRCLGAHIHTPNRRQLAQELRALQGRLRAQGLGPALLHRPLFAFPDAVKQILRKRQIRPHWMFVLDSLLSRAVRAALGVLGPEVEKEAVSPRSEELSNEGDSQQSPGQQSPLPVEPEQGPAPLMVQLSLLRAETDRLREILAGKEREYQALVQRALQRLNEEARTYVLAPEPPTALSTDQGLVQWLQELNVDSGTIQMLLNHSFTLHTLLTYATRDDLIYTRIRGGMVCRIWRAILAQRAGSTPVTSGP

[5] = target: Adenylate kinase 2, mitochondrial (Homo sapiens, UniProt P54819)
[6] = target: Tyrosine-protein kinase Lyn (Homo sapiens, UniProt P07948)
Chain of Tyrosine-protein kinase Lyn (P07948 whole entry): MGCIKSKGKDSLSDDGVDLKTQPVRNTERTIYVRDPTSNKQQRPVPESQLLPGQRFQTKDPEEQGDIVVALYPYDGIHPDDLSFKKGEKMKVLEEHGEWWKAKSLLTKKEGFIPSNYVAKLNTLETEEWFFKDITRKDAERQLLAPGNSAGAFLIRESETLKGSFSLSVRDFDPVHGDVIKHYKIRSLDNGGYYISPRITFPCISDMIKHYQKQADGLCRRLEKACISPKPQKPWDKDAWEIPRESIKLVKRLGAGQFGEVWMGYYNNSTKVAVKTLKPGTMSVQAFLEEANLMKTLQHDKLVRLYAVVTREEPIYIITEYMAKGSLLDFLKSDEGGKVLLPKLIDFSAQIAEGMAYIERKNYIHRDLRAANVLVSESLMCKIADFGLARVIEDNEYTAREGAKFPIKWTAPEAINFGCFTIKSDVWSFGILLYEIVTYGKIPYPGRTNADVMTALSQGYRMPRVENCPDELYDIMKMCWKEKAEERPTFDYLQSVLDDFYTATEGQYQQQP

[7] = target: Mitogen-activated protein kinase 9 (Homo sapiens, UniProt P45984)
Chain of Mitogen-activated protein kinase 9 (P45984 whole entry): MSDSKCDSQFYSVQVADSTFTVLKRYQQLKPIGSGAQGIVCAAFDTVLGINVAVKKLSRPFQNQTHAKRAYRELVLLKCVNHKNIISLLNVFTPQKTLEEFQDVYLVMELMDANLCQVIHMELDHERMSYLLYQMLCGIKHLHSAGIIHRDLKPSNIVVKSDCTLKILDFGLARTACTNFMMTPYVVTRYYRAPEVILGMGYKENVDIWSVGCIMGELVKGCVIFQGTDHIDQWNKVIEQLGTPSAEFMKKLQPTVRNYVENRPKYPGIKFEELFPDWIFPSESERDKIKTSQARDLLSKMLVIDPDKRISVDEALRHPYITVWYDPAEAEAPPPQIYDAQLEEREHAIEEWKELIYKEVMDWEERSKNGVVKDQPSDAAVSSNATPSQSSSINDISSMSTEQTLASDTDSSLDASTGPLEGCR

[8] = target: Ribosomal protein S6 kinase alpha-4 (Homo sapiens, UniProt O75676)
Chain of Ribosomal protein S6 kinase alpha-4 (O75676 whole entry): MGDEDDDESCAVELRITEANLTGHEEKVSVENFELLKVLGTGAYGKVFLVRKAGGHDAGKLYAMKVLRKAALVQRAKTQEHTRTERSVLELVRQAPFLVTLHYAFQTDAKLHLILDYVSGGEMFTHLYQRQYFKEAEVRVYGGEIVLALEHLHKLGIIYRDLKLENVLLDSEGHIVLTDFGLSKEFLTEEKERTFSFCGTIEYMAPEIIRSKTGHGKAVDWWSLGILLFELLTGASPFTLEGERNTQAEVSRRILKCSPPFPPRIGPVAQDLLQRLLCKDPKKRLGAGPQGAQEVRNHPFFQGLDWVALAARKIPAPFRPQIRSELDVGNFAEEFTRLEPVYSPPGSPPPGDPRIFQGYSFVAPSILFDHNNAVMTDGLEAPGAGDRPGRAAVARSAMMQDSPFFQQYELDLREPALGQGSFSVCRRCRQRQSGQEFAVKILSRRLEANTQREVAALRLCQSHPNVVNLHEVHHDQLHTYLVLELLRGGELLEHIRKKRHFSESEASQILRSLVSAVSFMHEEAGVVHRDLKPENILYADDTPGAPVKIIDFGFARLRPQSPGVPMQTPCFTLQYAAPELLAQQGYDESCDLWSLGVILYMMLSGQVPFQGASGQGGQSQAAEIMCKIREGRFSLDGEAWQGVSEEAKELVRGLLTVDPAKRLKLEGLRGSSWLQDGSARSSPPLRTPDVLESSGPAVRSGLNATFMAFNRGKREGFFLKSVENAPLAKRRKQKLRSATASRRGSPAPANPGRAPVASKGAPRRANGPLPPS
Note: in the data inactive means no Kd found up to 30 µM.

SMILES | Kd [1] | Kd [2] | Kd [3] | Kd [4] | Kd [5] | Kd [6] | Kd [7] | Kd [8] | pKd [8]
C[C@@H](NC(=O)c1ncnc(N)c1Cl)c1ncc(C(=O)Nc2cc(C(F)(F)F)c(Cl)cn2)s1 [TOVORAFENIB] | > 30 µM (inactive) | 0.807 µM (active) | > 30 µM (inactive) | > 30 µM (inactive) | > 30 µM (inactive) | > 30 µM (inactive) | > 30 µM (inactive) | > 30 µM (inactive) | 
Cn1cc(-c2cnn3c(N)c(Br)c([C@@H]4CCCNC4)nc23)cn1 [SCH-900776] | > 30 µM (inactive) | > 30 µM (inactive) | > 30 µM (inactive) | > 30 µM (inactive) | > 30 µM (inactive) | > 30 µM (inactive) | > 30 µM (inactive) |  | 5.47
CCn1c(C(=O)N(C2CC2)C2CC2)cc2c3c(ncn3C)c(Nc3cc(C)n(C)n3)nc21 [BMS-911543] | > 30 µM (inactive) | > 30 µM (inactive) | > 30 µM (inactive) | > 30 µM (inactive) | > 30 µM (inactive) | > 30 µM (inactive) | > 30 µM (inactive) | > 30 µM (inactive) | 
FC(F)(F)c1ccc(/C=C/c2nc(COc3ccc(CCCCn4ccnn4)cc3)co2)cc1 [MUBRITINIB] | > 30 µM (inactive) | > 30 µM (inactive) | > 30 µM (inactive) | > 30 µM (inactive) | > 30 µM (inactive) | > 30 µM (inactive) | > 30 µM (inactive) | > 30 µM (inactive) | 
